Measured values taken from article PMC9784689, “Bioactivity Profiling of In Silico Predicted Linear Toxins from the Ants Myrmica rubra and Myrmica ruginodis” (Toxins, 2022).
Read-outs that look alike come from different tables or passages of the source. No end group written: not given here.

Key:
[1] = test system: Influenza A/Hessen/1/03 (H3N2) in MDCK II cells; type: cell-based, influenza A virus; settings: 100 µM peptides, 48 h
[2] = test system: Influenza B/Massachusetts/71 (Yamagata lineage) in MDCK II cells; type: cell-based, influenza B virus; settings: B/Mass, 100 µM peptides, 48 h
[3] = test system: Influenza B/Malaysia/2506/04 (Victoria lineage) in MDCK II cells; type: cell-based, influenza B virus; settings: B/Mal, 100 µM peptides, 48 h
[4] = test system: Influenza A/Hamburg/5/09 (H1N1) in MDCK II cells; type: cell-based, influenza A virus; settings: 100 µM peptides, 48 h
[5] = test system: Escherichia coli, Staphylococcus aureus, Staphylococcus epidermidis, Pseudomonas aeruginosa (strains 50071 and 1117), Micrococcus luteus, Listeria …; assay: Antibacterial activity, statements for the whole panel of seven strains; type: cell-based; settings: 100 µM, after 48 h, MH II medium, 37 °C, OD600, triplicate

| Substance | Normalized to Aprotinin =1 (protection) ([1]; replicate 1) | Normalized to Aprotinin =1 (protection) ([1]; replicate 2) | Normalized to Aprotinin =1 (protection) ([1]; replicate 3) | Normalized to Aprotinin =1 (protection) ([2]; replicate 1) | Normalized to Aprotinin =1 (protection) ([2]; replicate 2) | Normalized to Aprotinin =1 (protection) ([2]; replicate 3) | Normalized to Aprotinin =1 (protection) ([3]; replicate 1) | Normalized to Aprotinin =1 (protection) ([3]; replicate 2) | Normalized to Aprotinin =1 (protection) ([3]; replicate 3) | Normalized to Aprotinin =1 (protection) ([4]; replicate 1) | Normalized to Aprotinin =1 (protection) ([4]; replicate 2) | Normalized to Aprotinin =1 (protection) ([4]; replicate 3) | Inhibition of bacterial growth, in words [5] |
| --- | --- | --- | --- | --- | --- | --- | --- | --- | --- | --- | --- | --- | --- |
| IDPKLLESLA-NH2 (C-terminus assumed) [U-MYRTX-Mrub2a] | 0.09958 | 0.07892 | 0.1212 | 0.008341 | 0.1091 | 0.1749 | 0.08852 | 0.1729 | 0.1453 | 0.07403 | 0.07306 | 0.0814 | no significant inhibition of bacterial growth |
| IDPKVLESLA-NH2 (C-terminus assumed) [U-MYRTX-Mrug2a] | 0.06351 | 0.02791 | 0.04387 | 0.01558 | 0.02606 | 0.02908 | 0.03996 | 0.0417 | 0.07904 | -0.00333 | 0.002305 | -0.007789 | no significant inhibition of bacterial growth |
| IDRSEKTERE-NH2 (C-terminus assumed) [U-MYRTX-Mrub3a] | 0.1064 | 0.05676 | 0.1027 | 0.02341 | 0.02308 | 0.03331 | 0.04706 | 0.1383 | 0.1034 | 0.05191 | 0.05042 | 0.0422 | no significant inhibition of bacterial growth |
| IDSKAIKSLQ-NH2 (C-terminus assumed) [U-MYRTX-Mrub4b/Mrug3a] | 0.06966 | 0.08008 | 0.07436 | 0.03499 | 0.02676 | 0.02366 | 0.05327 | 0.08884 | 0.1216 | 0.02574 | 0.02301 | 0.02813 | no significant inhibition of bacterial growth |
| IDVYFILHLP-NH2 (C-terminus assumed) [U-MYRTX-Mrug4b] | 0.06728 | 0.05537 | 0.07138 | 0.01102 | 0.01257 | 0.01675 | 0.03762 | 0.02626 | 0.09882 | -0.007928 | – | 0.0256 | – |
| aprotinin [reference compound] | 1 | 1 | 1 | 1 | 1 | 1 | 1 | 1 | 1 | 1 | 1 | 1 | – |
